Laboratory results as given in ChEMBL document CHEMBL3885861, “Open TG-GATES”.

Species: Rattus norvegicus
Assay: Open TG-GATES - Regimen: Single
Assay type: toxicity, organism-based, Sprague-Dawley
Design: regimen Single, gender Male, age 6 weeks
Conditions: in vivo, po, route gavage; for APTT / Bas / Eos / Fbg / Hb / Ht / Lym / MCH / MCHC / MCV / Mono / Neu / PT / Plat / RBC / Ret / WBC: tissue Blood; for KIDNEY_L / KIDNEY_R / KIDNEY_TOTAL: tissue Kidney; for LIVER: tissue Liver; for A/G / ALP / ALT / AST / BUN / CRE / Ca / Cl / DBIL / GLC / IP / K / LDH / Na / PL / RALB / TBIL / TC / TG / TP / gamma-GTP: tissue Plasma
[1] = 300 mg/kg, 3 h, dose level Middle
[2] = 300 mg/kg, 6 h, dose level Middle
[3] = 300 mg/kg, 9 h, dose level Middle
[4] = 300 mg/kg, 24 h, dose level Middle
[5] = 1000 mg/kg, 3 h, dose level High
[6] = 1000 mg/kg, 6 h, dose level High
[7] = 1000 mg/kg, 9 h, dose level High
[8] = 1000 mg/kg, 24 h, dose level High

O=C(O)c1cc(/N=N/c2ccc(S(=O)(=O)Nc3ccccn3)cc2)ccc1O [SULFASALAZINE]
TERMINAL_BW [1]: 212.5 g
APTT [1]: 18.5 s
Bas [1]: 0%
Eos [1]: 1%
Fbg [1]: 215.2 mg/dL
Hb [1]: 13.1 g/dL
Ht [1]: 38.5%
Lym [1]: 79%
MCH [1]: 21.3 pg
MCHC [1]: 34%
MCV [1]: 62.6 fL
Mono [1]: 2.6%
Neu [1]: 16.2%
PT [1]: 12.9 s
Plat [1]: 115.5 x10_4/uL
RBC [1]: 615.6 x10_4/ul
Ret [1]: 6.7%
WBC [1]: 93.5 x10_2/uL
KIDNEY_L [1]: 1 g
KIDNEY_R [1]: 0.9 g
KIDNEY_TOTAL [1]: 1.9 g
LIVER [1]: 9.7 g
A/G [1]: 1.6
ALP [1]: 897.6 IU/L
ALT [1]: 36.6 IU/L
AST [1]: 61.4 IU/L
BUN [1]: 10.8 mg/dL
CRE [1]: 0.4 mg/dL
Ca [1]: 10.4 mg/dL
Cl [1]: 102.2 meq/L
DBIL [1]: 0.064 mg/dL
GLC [1]: 198.2 mg/dL
IP [1]: 9.6 mg/dL
K [1]: 3.7 meq/L
LDH [1]: 147.2 IU/L
Na [1]: 140.6 meq/L
PL [1]: 140 mg/dL
RALB [1]: 3.3 g/dL
TBIL [1]: 0.1 mg/dL
TC [1]: 71.2 mg/dL
TG [1]: 59.6 mg/dL
TP [1]: 5.4 g/dL
gamma-GTP [1]: 1 IU/L
TERMINAL_BW [2]: 209.1 g
APTT [2]: 18.9 s
Bas [2]: 0%
Eos [2]: 1%
Fbg [2]: 230.2 mg/dL
Hb [2]: 13.2 g/dL
Ht [2]: 39%
Lym [2]: 76.2%
MCH [2]: 21.4 pg
MCHC [2]: 34%
MCV [2]: 63.1 fL
Mono [2]: 3%
Neu [2]: 19%
PT [2]: 12.6 s
Plat [2]: 115.4 x10_4/uL
RBC [2]: 618.8 x10_4/ul
Ret [2]: 7.4%
WBC [2]: 81.1 x10_2/uL
KIDNEY_L [2]: 1 g
KIDNEY_R [2]: 0.9 g
KIDNEY_TOTAL [2]: 1.9 g
LIVER [2]: 9.8 g
A/G [2]: 1.5
ALP [2]: 961.6 IU/L
ALT [2]: 33.8 IU/L
AST [2]: 68.8 IU/L
BUN [2]: 11.4 mg/dL
CRE [2]: 0.4 mg/dL
Ca [2]: 10.8 mg/dL
Cl [2]: 102.2 meq/L
DBIL [2]: 0.072 mg/dL
GLC [2]: 190 mg/dL
IP [2]: 9.5 mg/dL
K [2]: 4 meq/L
LDH [2]: 191.4 IU/L
Na [2]: 140.8 meq/L
PL [2]: 164.4 mg/dL
RALB [2]: 3.4 g/dL
TBIL [2]: 0.1 mg/dL
TC [2]: 88.6 mg/dL
TG [2]: 79.8 mg/dL
TP [2]: 5.7 g/dL
gamma-GTP [2]: 1 IU/L
TERMINAL_BW [3]: 206.7 g
APTT [3]: 19.2 s
Bas [3]: 0%
Eos [3]: 1%
Fbg [3]: 233.2 mg/dL
Hb [3]: 13 g/dL
Ht [3]: 38.1%
Lym [3]: 72.8%
MCH [3]: 21.6 pg
MCHC [3]: 34.1%
MCV [3]: 63.2 fL
Mono [3]: 2.6%
Neu [3]: 22.6%
PT [3]: 12.7 s
Plat [3]: 118.9 x10_4/uL
RBC [3]: 603 x10_4/ul
Ret [3]: 7.5%
WBC [3]: 81.5 x10_2/uL
KIDNEY_L [3]: 0.9 g
KIDNEY_R [3]: 0.9 g
KIDNEY_TOTAL [3]: 1.8 g
LIVER [3]: 8.6 g
A/G [3]: 1.5
ALP [3]: 961.6 IU/L
ALT [3]: 32.4 IU/L
AST [3]: 65.2 IU/L
BUN [3]: 8.8 mg/dL
CRE [3]: 0.3 mg/dL
Ca [3]: 10.5 mg/dL
Cl [3]: 103.2 meq/L
DBIL [3]: 0.064 mg/dL
GLC [3]: 198.6 mg/dL
IP [3]: 9.3 mg/dL
K [3]: 3.5 meq/L
LDH [3]: 183 IU/L
Na [3]: 140.8 meq/L
PL [3]: 149.2 mg/dL
RALB [3]: 3.3 g/dL
TBIL [3]: 0.1 mg/dL
TC [3]: 83.2 mg/dL
TG [3]: 44.2 mg/dL
TP [3]: 5.5 g/dL
gamma-GTP [3]: 1.2 IU/L
TERMINAL_BW [4]: 224.2 g
APTT [4]: 17.4 s
Bas [4]: 0%
Eos [4]: 0.8%
Fbg [4]: 233 mg/dL
Hb [4]: 12.8 g/dL
Ht [4]: 37.6%
Lym [4]: 75%
MCH [4]: 21.2 pg
MCHC [4]: 34.2%
MCV [4]: 62.1 fL
Mono [4]: 2.6%
Neu [4]: 19.8%
PT [4]: 12.4 s
Plat [4]: 122 x10_4/uL
RBC [4]: 605.8 x10_4/ul
Ret [4]: 6.5%
WBC [4]: 104.1 x10_2/uL
KIDNEY_L [4]: 1 g
KIDNEY_R [4]: 1 g
KIDNEY_TOTAL [4]: 1.9 g
LIVER [4]: 10.6 g
A/G [4]: 1.4
ALP [4]: 992.4 IU/L
ALT [4]: 40 IU/L
AST [4]: 62.8 IU/L
BUN [4]: 13.8 mg/dL
CRE [4]: 0.4 mg/dL
Ca [4]: 10.9 mg/dL
Cl [4]: 101.8 meq/L
DBIL [4]: 0.088 mg/dL
GLC [4]: 187.2 mg/dL
IP [4]: 7.2 mg/dL
K [4]: 3.9 meq/L
LDH [4]: 224 IU/L
Na [4]: 140.6 meq/L
PL [4]: 163.6 mg/dL
RALB [4]: 3.3 g/dL
TBIL [4]: 0.1 mg/dL
TC [4]: 86.8 mg/dL
TG [4]: 85.6 mg/dL
TP [4]: 5.6 g/dL
gamma-GTP [4]: 1.2 IU/L
TERMINAL_BW [5]: 210.6 g
APTT [5]: 19.5 s
Bas [5]: 0%
Eos [5]: 1%
Fbg [5]: 221.8 mg/dL
Hb [5]: 13.4 g/dL
Ht [5]: 39.6%
Lym [5]: 72.2%
MCH [5]: 21.2 pg
MCHC [5]: 33.9%
MCV [5]: 62.4 fL
Mono [5]: 2.8%
Neu [5]: 23.2%
PT [5]: 12.7 s
Plat [5]: 116.4 x10_4/uL
RBC [5]: 633.8 x10_4/ul
Ret [5]: 7%
WBC [5]: 94.9 x10_2/uL
KIDNEY_L [5]: 1 g
KIDNEY_R [5]: 1 g
KIDNEY_TOTAL [5]: 1.9 g
LIVER [5]: 9.7 g
A/G [5]: 1.5
ALP [5]: 1059.6 IU/L
ALT [5]: 39.4 IU/L
AST [5]: 67.8 IU/L
BUN [5]: 11.4 mg/dL
CRE [5]: 0.4 mg/dL
Ca [5]: 10.7 mg/dL
Cl [5]: 102.4 meq/L
DBIL [5]: 0.064 mg/dL
GLC [5]: 196.6 mg/dL
IP [5]: 9.4 mg/dL
K [5]: 4 meq/L
LDH [5]: 203.6 IU/L
Na [5]: 139.6 meq/L
PL [5]: 139.4 mg/dL
RALB [5]: 3.4 g/dL
TBIL [5]: 0.1 mg/dL
TC [5]: 76 mg/dL
TG [5]: 46.2 mg/dL
TP [5]: 5.6 g/dL
gamma-GTP [5]: 1 IU/L
TERMINAL_BW [6]: 208.9 g
APTT [6]: 18.8 s
Bas [6]: 0%
Eos [6]: 0.8%
Fbg [6]: 226 mg/dL
Hb [6]: 13.1 g/dL
Ht [6]: 38.3%
Lym [6]: 76.4%
MCH [6]: 21.3 pg
MCHC [6]: 34.2%
MCV [6]: 62.2 fL
Mono [6]: 2.2%
Neu [6]: 19.2%
PT [6]: 12.7 s
Plat [6]: 120.4 x10_4/uL
RBC [6]: 616.4 x10_4/ul
Ret [6]: 7.3%
WBC [6]: 73.5 x10_2/uL
KIDNEY_L [6]: 0.9 g
KIDNEY_R [6]: 1 g
KIDNEY_TOTAL [6]: 1.9 g
LIVER [6]: 9 g
A/G [6]: 1.5
ALP [6]: 928.2 IU/L
ALT [6]: 31.4 IU/L
AST [6]: 66.4 IU/L
BUN [6]: 8.4 mg/dL
CRE [6]: 0.4 mg/dL
Ca [6]: 10.5 mg/dL
Cl [6]: 103.2 meq/L
DBIL [6]: 0.066 mg/dL
GLC [6]: 190.8 mg/dL
IP [6]: 9.4 mg/dL
K [6]: 4 meq/L
LDH [6]: 207.8 IU/L
Na [6]: 141.4 meq/L
PL [6]: 144 mg/dL
RALB [6]: 3.4 g/dL
TBIL [6]: 0.1 mg/dL
TC [6]: 75.4 mg/dL
TG [6]: 59 mg/dL
TP [6]: 5.6 g/dL
gamma-GTP [6]: 1 IU/L
TERMINAL_BW [7]: 206.9 g
APTT [7]: 18.8 s
Bas [7]: 0%
Eos [7]: 0.8%
Fbg [7]: 222.2 mg/dL
Hb [7]: 13.2 g/dL
Ht [7]: 38.4%
Lym [7]: 72.2%
MCH [7]: 21.9 pg
MCHC [7]: 34.4%
MCV [7]: 63.7 fL
Mono [7]: 1.2%
Neu [7]: 25.2%
PT [7]: 12.8 s
Plat [7]: 110.1 x10_4/uL
RBC [7]: 603.4 x10_4/ul
Ret [7]: 7.2%
WBC [7]: 68.2 x10_2/uL
KIDNEY_L [7]: 0.9 g
KIDNEY_R [7]: 1 g
KIDNEY_TOTAL [7]: 1.9 g
LIVER [7]: 8 g
A/G [7]: 1.5
ALP [7]: 772.2 IU/L
ALT [7]: 31.4 IU/L
AST [7]: 67.4 IU/L
BUN [7]: 8.6 mg/dL
CRE [7]: 0.4 mg/dL
Ca [7]: 10.4 mg/dL
Cl [7]: 103.2 meq/L
DBIL [7]: 0.06 mg/dL
GLC [7]: 210.6 mg/dL
IP [7]: 8.6 mg/dL
K [7]: 3.5 meq/L
LDH [7]: 195.4 IU/L
Na [7]: 141.4 meq/L
PL [7]: 137.2 mg/dL
RALB [7]: 3.5 g/dL
TBIL [7]: 0.1 mg/dL
TC [7]: 72.6 mg/dL
TG [7]: 23 mg/dL
TP [7]: 5.8 g/dL
gamma-GTP [7]: 1.4 IU/L
TERMINAL_BW [8]: 214 g
APTT [8]: 17.5 s
Bas [8]: 0%
Eos [8]: 0.8%
Fbg [8]: 216.2 mg/dL
Hb [8]: 13.5 g/dL
Ht [8]: 39.4%
Lym [8]: 82.6%
MCH [8]: 21.7 pg
MCHC [8]: 34.4%
MCV [8]: 63 fL
Mono [8]: 2.4%
Neu [8]: 13%
PT [8]: 13.2 s
Plat [8]: 135.4 x10_4/uL
RBC [8]: 624 x10_4/ul
Ret [8]: 6.2%
WBC [8]: 85.9 x10_2/uL
KIDNEY_L [8]: 1 g
KIDNEY_R [8]: 1 g
KIDNEY_TOTAL [8]: 1.9 g
LIVER [8]: 8.6 g
A/G [8]: 1.5
ALP [8]: 925.2 IU/L
ALT [8]: 40.6 IU/L
AST [8]: 69.8 IU/L
BUN [8]: 13.8 mg/dL
CRE [8]: 0.4 mg/dL
Ca [8]: 10.7 mg/dL
Cl [8]: 100.6 meq/L
DBIL [8]: 0.076 mg/dL
GLC [8]: 191 mg/dL
IP [8]: 8.8 mg/dL
K [8]: 3.8 meq/L
LDH [8]: 232 IU/L
Na [8]: 139.6 meq/L
PL [8]: 142.4 mg/dL
RALB [8]: 3.4 g/dL
TBIL [8]: 0.1 mg/dL
TC [8]: 79.8 mg/dL
TG [8]: 52.8 mg/dL
TP [8]: 5.7 g/dL
gamma-GTP [8]: 1 IU/L
